Consider one compound from patent US7655832B2, “Rapid-throughput teleost regeneration assay” (The State of Oregon Acting by and Through the State Board …, priority 2006, dated 2010).

Test [1] concerns adult zebrafish caudal fin regeneration. Kind of test: Adult zebrafish caudal fin regeneration study. It is filed as in vivo. The text has this:
The fish were transferred back to the tanks and were continuously exposed to vehicle or Beclomethasone until the end of the study. The exposure solutions were changed daily. The positive “hits” were of different chemical classes and using structure function analysis, a major cluster of compounds was identified as glucocorticoids (5 of the “hit” compounds). […] We selected glucocorticoids for further studies since this was the largest cluster of “hits”. […] This characteristic morphology occurs because the tissue lateral to the amputation plane continues to grow and partially collapses around the amputation plane. Since the adult fin regeneration model is more widely studied, it was important to determine if chemical “hits” identified in the larval screen would be predictive for the adult fin regeneration responses. Therefore, the regeneration response to glucocorticoids exposure on fin regeneration was also assessed in adult zebrafish.

For test [2], the system named is zebrafish larvae caudal fin regeneration. Kind of test: Larval fin regeneration with exposure in distinct time windows post amputation. Type of test: in vivo. Particulars: 1 μM. How it is done:
Once candidate agents have been determined to affect regeneration, a number of studies may be done. In one example, the IC50 of the candidate agent is determined using methods known in the art. In another example, a secondary screen is performed to aid in identification of a target of the candidate agent. This may be accomplished in many ways. For example, after amputation, the fin undergoes several stages of regeneration. In a first stage, cells migrate into the epithelial wound cap. In a second stage, the blastema differentiates within the wound cap. In a final stage, cells proliferate, leading to outgrowth of the new fin. Thus, by adding the candidate agent to the amputated teleost for short durations of time at different, defined, times after amputation, it is possible to identify which regenerative stage or stages are sensitive to the candidate agent. Specifically, agents present for 0 to 4 hours post amputation (hpa) would preferentially target epithelial wound cap formation. Agents present between 4 and 12 hpa may specifically target blastema formation, and agents present between 12 and 24 hpa may preferentially target cellular differentiation. Finally, agents present between 24 hpa and 72 hpa would target the cellular proliferation stage.
Fertilized eggs were obtained from AB strain zebrafish (University of Oregon, Eugene, Oreg.) for all the experiments. […]

With `CCC(=O)OCC(=O)[C@@]1(OC(=O)CC)[C@@H](C)C[C@H]2[C@@H]3CCC4=CC(=O)C=C[C@]4(C)[C@@]3(Cl)[C@@H](O)C[C@@]21C` [Beclomethasone, Beclomethasone dipropionate], in test [1] (0.005 mg/L waterborne, one day pre-exposure then continuous exposure), the “adult caudal fin regeneration” value is “completely inhibited”. In test [1] (at 5 dpa), the “new tissue in the adult fin” value was “essentially no new tissue”. In addition, in test [2] (0-4 hpa), the “larval fin regeneration, exposure for four hours immediately following amputation” value was “failed to regenerate”. Further, the “larval fin regeneration, exposure beginning at 4 hpa” value in test [2] (from 4 hpa continuously until 3 dpa) is reported as “completely regenerated their fins”.
